Data published in US12122750B2, “AT2R antagonists and uses thereof” (Eli Lilly and Company, priority 2022, dated 2024).

Assays:
[1] = target: recombinant human angiotensin-II receptor subtype 2 (hAT2R) (Homo sapiens (Human), UniProt P50052); assay: Competitive radioligand binding assay (SPA), hAT2R HEK293 membranes; conditions: [125I]-Tyr4-Angiotensin-II, read-out: AT2R Ki
In short: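 SPA competition binding on membranes from HEK293 cells stably transfected with hAT2R (0.25 μg/well, with 0.1 mg/well PVT-WGA beads) in 50 mM Tris-HCl pH 7.5, 150 mM NaCl, 0.1% fatty-acid-free BSA. Ten-point four-fold dilution curves ran from 50 μM top final concentration. Bound radioactivity was counted (CPM) after 10 h at room temperature.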

rAT2R = rAT2R (Rattus norvegicus (Rat), UniProt P35351); assay: Rat binding affinity, competitive radioligand binding assay (SPA), rAT2R HEK293 membranes; conditions: rat AT2R
Description: Membrane Preparation Protocol (hAT2R HEK293 and rAT2R HEK293)
Receptor Binding Protocol
The assays were performed with a scintillation proximity assay (SPA) method using polyvinyltoluene (PVT) wheat germ agglutinin-coupled SPA beads (Perkin Elmer Cat. #RPNQ0001). Assay buffer containing BSA (50 mM Tris-HCl, pH 7.5, 150 mM NaCl, 0.1% w/v fatty-acid free BSA) was used for preparing radioligand, membrane and SPA bead reagent dilution to working stock concentrations. Reference control and test compounds were diluted to obtain ten-point concentration response curves using a four-fold serial dilution protocol onto assay plates, dispensed acoustically from DMSO stock using automated ECHO instrument technology (Labcyte, Inc.). Concentration response curves were routinely generated with the highest final assay concentration for the reference angiotensin-II control at 50 nM, and the highest final assay concentration for the test compounds at 50 μM. […] The hAT2R membrane was combined with PVT-WGA SPA beads to obtain a final assay concentration of 0.25 μg/well hAT2R membrane+0.1 mg/well PVT-WGA SPA bead. And the hAT1R membrane PVT-WGA SPA bead final concentrations was 0.5 μg/well hAT1R membrane+0.1 mg/well PVT-WGA SPA bead. […] For all assays, radioligand addition was followed by the addition of membrane-SPA bead mixture, i.e., the hAT2R membrane-SPA bead mixture (30 μL), the rAT2R membrane-SPA bead mixture, or the AT1R membrane-SPA bead mixture (30 μL) into the assay plate. All dispensing steps were added using a Multiflo FX (Biotek, Inc.) bulk dispensing instrument. After reagent addition steps, assay plates were sealed, and plate contents mixed for one minute on a benchtop micro-plate shaker. Following a 10-hour incubation at room temperature to allow for bead settling and radioligand binding, bound radioactivity was quantitated using a Microbeta Trilux scintillation counter (Perkin Elmer) and expressed as counts per minute (CPM). The unlabeled angiotensin-II control was included on each plate as an experimental assay reference.
Compounds were tested in a 10-point concentration response curve (CRC) format, with each plate containing the positive control angiotensin-II positive reference compound, and experimental compounds. Maximum binding response (Max) was determined in 32 control wells per plate using assay buffer treatment only, and the minimum binding controls or nonspecific binding response (Min) was also determined in 32 wells per plate by the treatment with 50 nM angiotensin-II. All test sample concentration responses were normalized to the control response and calculated as a percent of the maximal response after correcting for nonspecific binding as shown below: % Specific inhibition=100%−[(CPM−Min)/(Max−Min)×100%]
Percent specific binding (y-axis) was plotted versus the log concentration of compound (x-axis).

Chain of rAT2R (P35351 whole entry): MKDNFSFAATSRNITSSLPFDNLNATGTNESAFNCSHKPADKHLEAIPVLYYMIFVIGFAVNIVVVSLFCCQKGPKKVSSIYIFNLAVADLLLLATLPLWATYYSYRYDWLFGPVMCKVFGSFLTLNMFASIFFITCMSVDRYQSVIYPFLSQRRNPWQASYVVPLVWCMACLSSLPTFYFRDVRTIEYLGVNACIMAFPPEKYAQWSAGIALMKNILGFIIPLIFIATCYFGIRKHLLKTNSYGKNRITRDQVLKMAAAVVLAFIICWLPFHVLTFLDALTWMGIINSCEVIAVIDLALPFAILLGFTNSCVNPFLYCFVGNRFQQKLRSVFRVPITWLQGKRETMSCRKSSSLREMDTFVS
Chain of recombinant human angiotensin-II receptor subtype 2 (hAT2R) (P50052 whole entry): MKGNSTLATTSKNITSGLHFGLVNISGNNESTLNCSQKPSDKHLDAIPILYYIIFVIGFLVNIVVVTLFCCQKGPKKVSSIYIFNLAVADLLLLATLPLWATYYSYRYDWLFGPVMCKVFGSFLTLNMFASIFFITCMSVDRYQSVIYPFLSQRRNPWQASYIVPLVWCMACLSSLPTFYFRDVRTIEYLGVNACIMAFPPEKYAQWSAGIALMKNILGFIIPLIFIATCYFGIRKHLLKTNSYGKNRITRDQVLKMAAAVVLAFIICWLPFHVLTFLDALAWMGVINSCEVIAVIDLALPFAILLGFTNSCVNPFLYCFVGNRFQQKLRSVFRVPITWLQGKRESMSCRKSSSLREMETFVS

SMILES | Ki [1] [nM] | Ki (rAT2R) [nM]
O=C(N1CCC(CC(=O)N(c2ccccc2)c2ccccc2)(C(=O)O)CC1)N1CCc2ccccc21 [Example 3, 1-(indoline-1-carbonyl)-4-[2-oxo-2-(N-phenylanilino)ethyl]piperidine-4-carboxylic acid] | 5.36 | 2.19
CN(C(=O)N1CCC(CC(=O)N(c2ccccc2)C(C2CC2)C2CC2)(C(=O)O)CC1)c1ccc(F)cc1 [Example 18, 4-[2-[N-(dicyclopropylmethyl)anilino]-2-oxo-ethyl]-1-[(4-fluorophenyl)-methyl-carbamoyl]piperidine-4-carboxylic acid] | 9.59 | 0.614
